Literature values in PubChem BioAssay AID1259409 (Chemical Carcinogenesis Research Information System (CCRIS), 2018).

Test system: rodent chemically induced tumor inhibition, incidence and multiplicity
Experiment: CCRIS tumor inhibitor studies

Question: With `CC1=C(/C=C/C(C)=C/C=C/C(C)=C/C(=O)NCC(O)CO)C(C)(C)CCC1` (stereo unspecified) as the molecule, how does the “tumour outcome (control, treated, inhibition, significance)” value (Carcinogen: N-BUTYL-N-(4-HYDROXYBUTYL)NITROSAMINE, 3817-11-6, Dose [Inhibitor]: 1.5 MMOL/KG/D IN DIET FOR 108 D STARTING 1 WK POST CARCINOGEN TREATMENT (STUDY DURATION: 171 D), Route [Inhibitor]: ORAL, Species: MOUSE, Strain/Sex: BDF/MALE, Target Tissue: Type of Lesion: URINARY BLADDER: TRANSITIONAL CELL CARCINOMA, Dose [Carcinogen]: 5 MG 2/WK FOR 9 WK, Promoter: NONE USED) read?
Answer: 31/55 (56%), 25/54 (46%), 18%, not significant

Question: What about the “tumour outcome (control, treated, inhibition, significance)” value (Carcinogen: N-NITROSOBIS(2-OXOPROPYL)AMINE, 60599-38-4, Dose [Inhibitor]: 0.25 MMOL/KG OF DIET FOR 184 D STARTING 2 WK AFTER LAST CARCINOGEN DOSE WITH 4 INTERMITTENT 1 WK REST PERIODS OF VEHICLE, Route [Inhibitor]: ORAL, Species: HAMSTER, Strain/Sex: SYRIAN/FEMALE, Target Tissue: Type of Lesion: PANCREAS: CARCINOMA, Dose [Carcinogen]: 20 MG/KG INJECTION GIVEN TWICE 1 WK APART, Promoter: NONE USED) of the same molecule?
Answer: 38%, 35%, 8%, not calculated

Question: And the “tumour outcome (control, treated, inhibition, significance)” value (Carcinogen: N-NITROSOBIS(2-OXOPROPYL)AMINE, 60599-38-4, Dose [Inhibitor]: 0.25 MMOL/KG OF DIET FOR 184 D STARTING 2 WK AFTER LAST CARCINOGEN DOSE WITH 4 INTERMITTENT 1 WK REST PERIODS OF VEHICLE, Route [Inhibitor]: ORAL, Species: HAMSTER, Strain/Sex: SYRIAN/MALE, Target Tissue: Type of Lesion: PANCREAS: CARCINOMA, Dose [Carcinogen]: 20 MG/KG INJECTION GIVEN TWICE 1 WK APART, Promoter: NONE USED)?
Answer: 34%, 43%, -26%, not calculated

Question: And the “tumour outcome (control, treated, inhibition, significance)” value (Carcinogen: N-NITROSOBIS(2-OXOPROPYL)AMINE, 60599-38-4, Dose [Inhibitor]: 0.25 MMOL/KG OF DIET FOR 350 D STARTING 2 WK AFTER LAST CARCINOGEN DOSE AND INTERRUPTED TWICE BY 1 WK REST PERIODS OF VE, Route [Inhibitor]: ORAL, Species: HAMSTER, Strain/Sex: SYRIAN/FEMALE, Target Tissue: Type of Lesion: LIVER: HEPATOCELLULAR CARCINOMA, Dose [Carcinogen]: 20 MG/KG INJECTION GIVEN TWICE 1 WK APART, Promoter: NONE USED)?
Answer: 5%, 28%, -460%, not calculated

Question: What about the “tumour outcome (control, treated, inhibition, significance)” value (Carcinogen: N-NITROSOBIS(2-OXOPROPYL)AMINE, 60599-38-4, Dose [Inhibitor]: 0.25 MMOL/KG OF DIET FOR 350 D STARTING 2 WK AFTER LAST CARCINOGEN DOSE AND INTERRUPTED TWICE BY 1 WK REST PERIODS OF VE, Route [Inhibitor]: ORAL, Species: HAMSTER, Strain/Sex: SYRIAN/MALE, Target Tissue: Type of Lesion: LIVER: HEPATOCELLULAR CARCINOMA, Dose [Carcinogen]: 20 MG/KG INJECTION GIVEN TWICE 1 WK APART, Promoter: NONE USED) of the same molecule?
Answer: 7%, 14%, -100%, not calculated

Question: What about the “tumour outcome (control, treated, inhibition, significance)” value (Carcinogen: N-NITROSOBIS(2-OXOPROPYL)AMINE, 60599-38-4, Dose [Inhibitor]: 0.5 MMOL/KG OF DIET FOR 153 D STARTING 2 WK AFTER LAST CARCINOGEN DOSE WITH 4 INTERMITTENT 1 WK REST PERIODS OF VEHICLE-, Route [Inhibitor]: ORAL, Species: HAMSTER, Strain/Sex: SYRIAN/FEMALE, Target Tissue: Type of Lesion: LIVER: HEPATOCELLULAR CARCINOMA, Dose [Carcinogen]: 20 MG/KG INJECTION GIVEN TWICE 1 WK APART, Promoter: NONE USED) of the same molecule?
Answer: 5%, 0%, 100%, not calculated

Question: And the “tumour outcome (control, treated, inhibition, significance)” value (Carcinogen: N-NITROSOBIS(2-OXOPROPYL)AMINE, 60599-38-4, Dose [Inhibitor]: 0.5 MMOL/KG OF DIET FOR 153 D STARTING 2 WK AFTER LAST CARCINOGEN DOSE WITH 4 INTERMITTENT 1 WK REST PERIODS OF VEHICLE-, Route [Inhibitor]: ORAL, Species: HAMSTER, Strain/Sex: SYRIAN/FEMALE, Target Tissue: Type of Lesion: PANCREAS: NEOPLASM, Dose [Carcinogen]: 20 MG/KG INJECTION GIVEN TWICE 1 WK, Promoter: NONE USED)?
Answer: 38%, 21%, 45%, not calculated

Question: What about the “tumour outcome (control, treated, inhibition, significance)” value (Carcinogen: N-NITROSOBIS(2-OXOPROPYL)AMINE, 60599-38-4, Dose [Inhibitor]: 0.5 MMOL/KG OF DIET FOR 153 D STARTING 2 WK AFTER LAST CARCINOGEN DOSE WITH 4 INTERMITTENT 1 WK REST PERIODS OF VEHICLE-, Route [Inhibitor]: ORAL, Species: HAMSTER, Strain/Sex: SYRIAN/MALE, Target Tissue: Type of Lesion: PANCREAS: CARCINOMA, Dose [Carcinogen]: 20 MG/KG INJECTION GIVEN TWICE 1 WK APART, Promoter: NONE USED) of the same molecule?
Answer: 34%, 36%, -6%, not calculated

Question: Which results are given for `CS(=O)CCCCN=C=S` (stereo unspecified)?
Answer: tumour outcome (control, treated, inhibition, significance) (Carcinogen: 4-(METHYLNITROSAMINO)-1-(3-PYRIDYL)-1-BUTANONE (NNK) [64091-91-4], Dose [Inhibitor]: 1.5 UM/G DIET, BEGINNING 13 WKS AFTER CARCINOGEN/PROMOTER TREATMENT (STUDY DURATION: 42 WK), Route [Inhibitor]: DIET, Species: MOUSE, Strain/Sex: A/J/FEMALE (39,?)/(20,?), Target Tissue: Type of Lesion: LUNG: ADENOCARCINOMA, Dose [Carcinogen]: 3 µM WEEKLY FOR 8 DOSES, Promoter: BENZO[A]PYRENE [50-32-8]): 42%, 20%, 52%, not significant; tumour outcome (control, treated, inhibition, significance) (Carcinogen: 4-(METHYLNITROSAMINO)-1-(3-PYRIDYL)-1-BUTANONE (NNK) [64091-91-4], Dose [Inhibitor]: 1.5 UM/G DIET, BEGINNING 13 WKS AFTER CARCINOGEN/PROMOTER TREATMENT (STUDY DURATION: 42 WK), Route [Inhibitor]: DIET, Species: MOUSE, Strain/Sex: A/J/FEMALE (39,?)/(20,?), Target Tissue: Type of Lesion: LUNG: ADENOMA, Dose [Carcinogen]: 3 µM WEEKLY FOR 8 DOSES, Promoter: BENZO[A]PYRENE [50-32-8]): 100%, 100%, 0%, not significant; tumour outcome (control, treated, inhibition, significance) (Carcinogen: 4-(METHYLNITROSAMINO)-1-(3-PYRIDYL)-1-BUTANONE (NNK) [64091-91-4], Dose [Inhibitor]: 3 UM/G DIET, BEGINNING 13 WKS AFTER CARCINOGEN/PROMOTER TREATMENT (STUDY DURATION: 42 WK), Route [Inhibitor]: DIET, Species: MOUSE, Strain/Sex: A/J/FEMALE (39,?)(32,?), Target Tissue: Type of Lesion: LUNG: ADENOCARCINOMA, Dose [Carcinogen]: 3 µM WEEKLY FOR 8 DOSES, Promoter: BENZO[A]PYRENE [50-32-8]): 42%, 28%, 33%, not significant; tumour outcome (control, treated, inhibition, significance) (Carcinogen: 4-(METHYLNITROSAMINO)-1-(3-PYRIDYL)-1-BUTANONE (NNK) [64091-91-4], Dose [Inhibitor]: 3 UM/G DIET, BEGINNING 13 WKS AFTER CARCINOGEN/PROMOTER TREATMENT (STUDY DURATION: 42 WK), Route [Inhibitor]: DIET, Species: MOUSE, Strain/Sex: A/J/FEMALE (39,?)/(32,?), Target Tissue: Type of Lesion: LUNG: ADENOMA, Dose [Carcinogen]: 3 µM WEEKLY FOR 8 DOSES, Promoter: BENZO[A]PYRENE [50-32-8]): 100%, 93%, 7%, not significant; tumour outcome (control, treated, inhibition, significance) (Carcinogen: 7,12-DIMETHYLBENZ[A]ANTHRACENE, 57-97-6, Dose [Inhibitor]: 0, 75 UMOL/D IN 0.5 ML EMULPHOR EL-620 FOR 5 CONSECUTIVE DAYS BEGINNING AT 47 D OF AGE (STUDY DURATION: 155 D), Route [Inhibitor]: GAVAGE, Species: RAT, Strain/Sex: SPRAGUE-DAWLEY/FEMALE, Target Tissue: Type of Lesion: MAMMARY GLAND: TUMOR, Dose [Carcinogen]: 8 MG IN 1 ML SESAME OIL ONCE AT 50 D OF AGE, Promoter: NONE USED): 17/25 (68%), 7/20 (35%), 49%, p<0.05; tumour outcome (control, treated, inhibition, significance) (Carcinogen: 7,12-DIMETHYLBENZ[A]ANTHRACENE, 57-97-6, Dose [Inhibitor]: 0, 150 UMOL/D IN 0.5 ML EMULPHOR EL-620 FOR 5 CONSECUTIVE DAYS BEGINNING AT 47 D OF AGE (STUDY DURATION: 155 D), Route [Inhibitor]: GAVAGE, Species: RAT, Strain/Sex: SPRAGUE-DAWLEY/FEMALE, Target Tissue: Type of Lesion: MAMMARY GLAND: TUMOR, Dose [Carcinogen]: 8 MG IN 1 ML SESAME OIL ONCE AT 50 D OF AGE, Promoter: NONE USED): 17/25 (68%), 5/19 (26%), 62%, p<0.05

Question: For `CC1(C)[C@H](O)CC[C@]2(C)C3=CC[C@@]4(C)[C@@H]5C[C@](C)(CO)CC[C@]5(C)CC[C@]4(C)C3=CC[C@@H]12`, which “tumour outcome (control, treated, inhibition, significance)” value (Carcinogen: 7,12-DIMETHYLBENZ[A]ANTHRACENE, 57-97-6, Dose [Inhibitor]: 0, 2 UMOL IN 100 µL ACETONE:DMSO (9:1) 2/WK FOR 17 WK APPLIED 30 MIN PRIOR TO EACH PROMOTER DOSE (STUDY DURATION: 18 WK), Route [Inhibitor]: DERMAL, Species: MOUSE, Strain/Sex: ICR/FEMALE, Target Tissue: Type of Lesion: SKIN: PAPILLOMA, Dose [Carcinogen]: 50 UG IN 100 µL ACETONE ONCE, Promoter: 12-O-TETRADECANOYLPHORBOL-13-ACETATE, 16561-29-8) is on record?
Answer: 87%, 13%, 85%, not calculated

Question: With `CC(C#Cc1ccc(Oc2ccc(F)cc2)o1)N(O)C(N)=O` (stereo unspecified) as the molecule, how does the “tumour outcome (control, treated, inhibition, significance)” value (Carcinogen: 4-(METHYLNITROSAMINO)-1-(3-PYRIDYL)-1-BUTANONE, 64091-91-4, Dose [Inhibitor]: 0, 74 MG/KG DIET FOR DURATION OF STUDY BEGINNING 2 WK PRIOR TO CARCINOGEN TREATMENT (STUDY DURATION: 25 WK), Route [Inhibitor]: ORAL, Species: MOUSE, Strain/Sex: STRAIN-A/FEMALE, Target Tissue: Type of Lesion: LUNG: TUMOR, Dose [Carcinogen]: 9.1 MG/MOUSE IN DRINKING WATER FOR 7 WK, Promoter: NONE USED) read?
Answer: 29/29 (100%), 20/25 (80%), 20%, p<0.001
